Results: patent US4734399A, “Growth hormone releasing factor analogs” (Hoffmann-La Roche Inc., priority 1986, dated 1988)

Columns and labels:
rat pituitary cells = experiment: Stimulation of growth hormone production in rat pituitary cells in tissue culture (RIA for rat growth hormone); format: cell-based; conditions: for Potency Relative to GRF(1-44)-NH2: Exp. #GB 83, rat anterior pituitary cells, 4 hours of incubation, 0.8 to 200 fmol per ml, GH by RIA
Procedure: The assay for biological activity, which is based on the ability to stimulate production of growth hormone in rat pituitary cells in tissue culture, was performed as discribed in Example 2.
Pituitaries from 30-40 male Sprague-Dawley rats (175 g) were removed aseptically after decapitation. The anterior lobes were collected, washed 3 times in sterile Hepes buffer (0.025M) (pH 7.35) and dispersed at 37° C. in 20-30 ml Hepes buffer (pH 7.35) containing collagenase (4 mg per ml) and Dispase (Protease grade II, 2 mg per ml). After gentle 100-110 min vortexing and trituration by Pasteur pipette, the dispersed cells were separated by centrifugation (150×g, 4 min) and re-suspended in Hepes buffer containing neuraminidase ([…]), and 200 µg/ml ethylenediaminetetraacetic acid (EDTA) disodium salt, pH 7.35, for 10 min.
The cells were washed twice with plating medium and plated on multiwell-plates (1.5×10^5 cells per ml) using the following defined medium: F-12/DMEM/BGJ (6:3:1) (Gibco: 430-1700/430-1600/320-2591) with 2 g BSA/l., 2.38 g Hepes/1.50 mg PSN antibiotic mixture (Gibco Laboratories), 10 mg/l transferrin (Sigma T2252) with 1.83 g NaHCO3 /l (Baker 3506). The medium in each well was supplemented either with a sample of the novel GRF peptide or natural GRF(1-44)-NH2 at concentrations ranging from 0.8 to 200 fmol per ml of medium. Control wells contained no supplement. Plating was done with this medium added with 2% fetal calf serum to ensure rapid fixation of the cells.
On the fourth day, the cells were washed twice with the defined medium without fetal calf serum. Finally 900 μl of defined medium was added to each well plus 100 μl of the same medium containing each individual treatment, in triplicate. After 4 hours of incubation the medium was collected and diluted as required to conduct radioimmunoassay (RIAs) for rat growth hormone.
RIAs for rat growth hormone were conducted using Sinha's anti-murine GH immune serum and procedures according to the National Pituitary Agency using protein A to precipitate antibody antigen complex.

[1] = test system: release of growth hormone; conditions: in vitro; Rivier et al., Nature 300: 276 (1982); cited from earlier work

| Substance | Potency Relative to GRF(1-44)-NH2 (rat pituitary cells) | Intrinsic activity and potency on a weight for weight basis [1] | Biological activity compared with natural GRF(1-44)-NH2 (rat pituitary cells; vs natural GRF(1-44)-NH2 isolated from human pancreatic tumor (Salk Institute standard hGRF-NH2 (NL-A-10))) |
| --- | --- | --- | --- |
| GRF(1-29)-NH2 [GRF(1-29)NH2] | 0.5 | full intrinsic activity and potency |  |
| GRF(1-44)-NH2 [GRF(1-44)NH2] | 1.0 |  | identical to the natural GRF(1-44)-NH2 |
